± gives the expanded uncertainty stated by the source.
Details: Liquid, Closed cell (Static) method

With `FC1(F)C(F)(F)C(F)(F)C1(F)F` [octafluorocyclobutane] the “vapor or sublimation pressure” value (247.9 K) was 39 ± 3 kPa, the “vapor or sublimation pressure” value (248.25 K) was 41 ± 3 kPa and the “vapor or sublimation pressure” value (248.3 K) was 40 ± 3 kPa. For the same molecule, the “vapor or sublimation pressure” value (253.38 K) was 51 ± 3 kPa, the “vapor or sublimation pressure” value (263 K) was 81 ± 3 kPa and the “vapor or sublimation pressure” value (265.93 K) was 92 ± 3 kPa. For the same molecule, the “vapor or sublimation pressure” value (267.92 K) was 99 ± 3 kPa, the “vapor or sublimation pressure” value (269.89 K) was 110 ± 3 kPa and the “vapor or sublimation pressure” value (272.9 K) was 122 ± 3 kPa. The “vapor or sublimation pressure” value (277.87 K) was 148 ± 3 kPa, the “vapor or sublimation pressure” value (282.9 K) was 180 ± 3 kPa and the “vapor or sublimation pressure” value (287.89 K) was 216 ± 3 kPa. For the same molecule, the “vapor or sublimation pressure” value (292.89 K) was 257 ± 4 kPa, the “vapor or sublimation pressure” value (303.37 K) was 362 ± 4 kPa and the “vapor or sublimation pressure” value (313.09 K) was 486 ± 4 kPa. For the same molecule, the “vapor or sublimation pressure” value (322.53 K) was 635 ± 5 kPa, the “vapor or sublimation pressure” value (335.34 K) was 889 ± 5 kPa and the “vapor or sublimation pressure” value (342.37 K) was 1055 ± 6 kPa. The “vapor or sublimation pressure” value (352.36 K) was 1329 ± 7 kPa.

With `FC(F)=C(F)F` [tetrafluoroethene] the “vapor or sublimation pressure” value (248.2 K) was 864 ± 7 kPa, the “vapor or sublimation pressure” value (248.3 K) was 866 ± 8 kPa and the “vapor or sublimation pressure” value (253.34 K) was 1017 ± 8 kPa. For the same molecule, the “vapor or sublimation pressure” value (263 K) was 1357 ± 10 kPa, the “vapor or sublimation pressure” value (263.18 K) was 1367 ± 9 kPa and the “vapor or sublimation pressure” value (273.14 K) was 1804 ± 11 kPa. For the same molecule, the “vapor or sublimation pressure” value (282.9 K) was 2330 ± 12 kPa and the “vapor or sublimation pressure” value (283.19 K) was 2340 ± 12 kPa.

Source: the NIST ThermoML archive (doi:10.1021/je300217x)
